Measurements: US8071540B2, “Virus derived antimicrobial peptides” (priority 2007, dated 2011)
Where no end group is shown, it is not given here.

Tested on: Burkholderia cepacia
Type: cell-based
Details: 25 μM peptide, organisms surviving, FIG. 8

Sequence: RWIRVVQRWCRAIRHIWRRIRQGLRRWLRVV [WLSA-5, RWIRVVQRWCRAIRHIWRRIRQGLRRWLRVV]
- killing of B. cepacia genomovars compared with LL37: equal to or better than LL-37 at killing all bacterial strains
